In patent US10183936B2, “Hepatitis B core protein allosteric modulators” (priority 2014, dated 2019):

Tests used:
[1] = tested on: HBV viral production in AD38 cells; assay: Viral load production in AD38 cells by quantitative PCR of the HBV core sequence in supernatant; type: cell-based; settings: Hepatitis B virus, 144 h; 10 μM compound, 6 days at 37° C., viral load in supernatant compared against DMSO control wells; read-out: AD38 Viral Load (CpAM/DMSO %) at 10 μM
Outline: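 Read-out is TaqMan qPCR of the HBV core region in supernatant, quantitated against standards and referenced to DMSO controls (≥3 per plate). Cells: AD38 at 50,000/well, exposed to compound (added as 10× stock in 10% DMSO) for 6 days at 37° C.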

AD38 cells = assay: Viability of AD38 cells (Promega CellTiter-Glo) at the end of compound treatment; type: cell-based; settings: 10 μM compound, 6 days, luminescence normalized against DMSO control wells (controls being 100%)
Outline: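 Luminescent CellTiter-Glo read-out, taken after supernatant was swapped for tetracycline-free 2% FBS medium with 1% DMSO, gave percent viability relative to DMSO controls set at 100%. Cells were plated at 50,000/well and exposed to compound, added as a 10× stock in 10% DMSO, for 6 days at 37° C.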

Cc1cccc(CNC(=O)c2ccc3c(c2)NC(=O)c2ccccc2S3(=O)=O)c1 [Compound 1621]
activity at 10 µM [1]: 1%
AD38 Viability Normalized Result (CPAM/DMSO %) at 10 μM (AD38 cells): 117%

O=C(NCc1cccc(F)c1)c1ccc2c(c1)NC(=O)c1ccccc1S2(=O)=O [Compound 1622]
activity at 10 µM [1]: 0%
AD38 Viability Normalized Result (CPAM/DMSO %) at 10 μM (AD38 cells): 120%

O=C(NCc1ccc(F)cc1)c1ccc2c(c1)NC(=O)c1ccccc1S2(=O)=O [Compound 1623]
activity at 10 µM [1]: 1%
AD38 Viability Normalized Result (CPAM/DMSO %) at 10 μM (AD38 cells): 128%

O=C(NCc1cccc(OC(F)(F)F)c1)c1ccc2c(c1)NC(=O)c1ccccc1S2(=O)=O [Compound 1624]
activity at 10 µM [1]: 1%
AD38 Viability Normalized Result (CPAM/DMSO %) at 10 μM (AD38 cells): 136%

O=C(NCCOc1ccccc1)c1ccc2c(c1)NC(=O)c1ccccc1S2(=O)=O [Compound 1625]
activity at 10 µM [1]: 2%
AD38 Viability Normalized Result (CPAM/DMSO %) at 10 μM (AD38 cells): 111%

O=C(NCCc1ccc(-n2nccn2)cc1)c1ccc2c(c1)NC(=O)c1ccccc1S2(=O)=O [Compound 1626]
activity at 10 µM [1]: 0%
AD38 Viability Normalized Result (CPAM/DMSO %) at 10 μM (AD38 cells): 118%

O=C(NCc1ccc(-c2cncnc2)cc1)c1ccc2c(c1)NC(=O)c1ccccc1S2(=O)=O [Compound 1627]
activity at 10 µM [1]: 5%
AD38 Viability Normalized Result (CPAM/DMSO %) at 10 μM (AD38 cells): 115%

COC(=O)c1ccccc1-c1cccc(NC(=O)c2ccc3c(c2)NC(=O)c2ccccc2S3(=O)=O)c1 [Compound 1628]
activity at 10 µM [1]: 17%
AD38 Viability Normalized Result (CPAM/DMSO %) at 10 μM (AD38 cells): 138%

O=C(Nc1cccc(-c2cccnc2)c1)c1ccc2c(c1)NC(=O)c1ccccc1S2(=O)=O [Compound 1629]
activity at 10 µM [1]: 3%
AD38 Viability Normalized Result (CPAM/DMSO %) at 10 μM (AD38 cells): 95%

CCc1ncsc1CNC(=O)c1ccc2c(c1)NC(=O)c1ccccc1S2 [Compound 1631]
activity at 10 µM [1]: 9%
AD38 Viability Normalized Result (CPAM/DMSO %) at 10 μM (AD38 cells): 112%

O=C(NCc1scnc1Cl)c1ccc2c(c1)NC(=O)c1ccccc1S2 [Compound 1632]
activity at 10 µM [1]: 2%
AD38 Viability Normalized Result (CPAM/DMSO %) at 10 μM (AD38 cells): 122%

Cl.O=C(NCC1CCCN1)c1ccc2c(c1)NC(=O)c1ccccc1S2 (centres unmarked) [Compound 1633, 11-oxo-N-(pyrrolidin-2-ylmethyl)-10, 11-dihydrodibenzo [b,f] [1,4] thiazepine-8-carboxamide hydrochloride]
activity at 10 µM [1]: 66%
AD38 Viability Normalized Result (CPAM/DMSO %) at 10 μM (AD38 cells): 124%

O=C(Nc1nccs1)c1ccc2c(c1)NC(=O)c1ccccc1S2(=O)=O [Compound 1634]
activity at 10 µM [1]: 45%
AD38 Viability Normalized Result (CPAM/DMSO %) at 10 μM (AD38 cells): 125%

O=C(NCc1cnc(-c2ccccc2)nc1)c1ccc2c(c1)NC(=O)c1ccccc1S2(=O)=O [Compound 1635]
activity at 10 µM [1]: 1%
AD38 Viability Normalized Result (CPAM/DMSO %) at 10 μM (AD38 cells): 93%

O=C(NCCC1CCCO1)c1ccc2c(c1)NC(=O)c1ccccc1S2(=O)=O (centres unmarked) [Compound 1636]
activity at 10 µM [1]: 0%
AD38 Viability Normalized Result (CPAM/DMSO %) at 10 μM (AD38 cells): 111%

O=C(Nc1nc2ccc(F)cc2s1)c1ccc2c(c1)NC(=O)c1ccccc1S2(=O)=O [Compound 1637]
activity at 10 µM [1]: 32%
AD38 Viability Normalized Result (CPAM/DMSO %) at 10 μM (AD38 cells): 123%
